In the NIST ThermoML archive (doi:10.1016/j.jct.2012.03.003):

Assay: xn = mol fraction of the nth substance listed
Settings: Liquid, Vibrating tube method

COc1cc2c(cc1O)CC1c3c(cc(O)c(OC)c3-2)CCN1C (stereo not given) [boldine] + CCO
Settings	mass density [kg/m3]
313.01 K, 1000 kPa, x1 = 0.0196	817.64
313.01 K, 2000 kPa, x1 = 0.0196	818.47
313.01 K, 3000 kPa, x1 = 0.0196	819.29
313.01 K, 4000 kPa, x1 = 0.0196	820.13
313.01 K, 5000 kPa, x1 = 0.0196	820.98
313.01 K, 6000 kPa, x1 = 0.0196	821.82
313.01 K, 7000 kPa, x1 = 0.0196	822.67
313.01 K, 8000 kPa, x1 = 0.0196	823.53
313.01 K, 9000 kPa, x1 = 0.0196	824.37
313.01 K, 10000 kPa, x1 = 0.0196	825.22
313.01 K, 11000 kPa, x1 = 0.0196	826.07
313.01 K, 12000 kPa, x1 = 0.0196	826.9
313.01 K, 13000 kPa, x1 = 0.0196	827.74
313.01 K, 14000 kPa, x1 = 0.0196	828.55
313.01 K, 15000 kPa, x1 = 0.0196	829.36
313.01 K, 16000 kPa, x1 = 0.0196	830.17
313.01 K, 17000 kPa, x1 = 0.0196	830.96
313.01 K, 18000 kPa, x1 = 0.0196	831.74
313.01 K, 19000 kPa, x1 = 0.0196	832.5
313.01 K, 20000 kPa, x1 = 0.0196	833.23
313.09 K, 1000 kPa, x1 = 0.0012	775.75
313.09 K, 1000 kPa, x1 = 0.0267	829.8
313.09 K, 2000 kPa, x1 = 0.0012	776.61
313.09 K, 2000 kPa, x1 = 0.0267	830.62
313.09 K, 3000 kPa, x1 = 0.0012	777.49
313.09 K, 3000 kPa, x1 = 0.0267	831.43
313.09 K, 4000 kPa, x1 = 0.0012	778.37
313.09 K, 4000 kPa, x1 = 0.0267	832.27
313.09 K, 5000 kPa, x1 = 0.0012	779.27
313.09 K, 5000 kPa, x1 = 0.0267	833.1
313.09 K, 6000 kPa, x1 = 0.0012	780.17
313.09 K, 6000 kPa, x1 = 0.0267	833.94
313.09 K, 7000 kPa, x1 = 0.0012	781.08
313.09 K, 7000 kPa, x1 = 0.0267	834.77
313.09 K, 8000 kPa, x1 = 0.0012	781.99
313.09 K, 8000 kPa, x1 = 0.0267	835.61
313.09 K, 9000 kPa, x1 = 0.0012	782.89
313.09 K, 9000 kPa, x1 = 0.0267	836.46
313.09 K, 10000 kPa, x1 = 0.0012	783.79
313.09 K, 10000 kPa, x1 = 0.0267	837.26
313.09 K, 11000 kPa, x1 = 0.0012	784.7
313.09 K, 11000 kPa, x1 = 0.0267	838.09
313.09 K, 12000 kPa, x1 = 0.0012	785.59
313.09 K, 12000 kPa, x1 = 0.0267	838.91
313.09 K, 13000 kPa, x1 = 0.0012	786.48
313.09 K, 13000 kPa, x1 = 0.0267	839.73
313.09 K, 14000 kPa, x1 = 0.0012	787.35
313.09 K, 14000 kPa, x1 = 0.0267	840.53
313.09 K, 15000 kPa, x1 = 0.0012	788.21
313.09 K, 15000 kPa, x1 = 0.0267	841.33
313.09 K, 16000 kPa, x1 = 0.0012	789.07
313.09 K, 16000 kPa, x1 = 0.0267	842.12
313.09 K, 17000 kPa, x1 = 0.0012	789.89
313.09 K, 17000 kPa, x1 = 0.0267	842.89
313.09 K, 18000 kPa, x1 = 0.0012	790.71
313.09 K, 18000 kPa, x1 = 0.0267	843.66
313.09 K, 19000 kPa, x1 = 0.0012	791.52
313.09 K, 19000 kPa, x1 = 0.0267	844.41
313.09 K, 20000 kPa, x1 = 0.0012	792.31
313.09 K, 20000 kPa, x1 = 0.0267	845.14
313.1 K, 1000 kPa, x1 = 0.0074	788.76
313.1 K, 2000 kPa, x1 = 0.0074	789.61
313.1 K, 3000 kPa, x1 = 0.0074	790.46
313.1 K, 4000 kPa, x1 = 0.0074	791.34
313.1 K, 5000 kPa, x1 = 0.0074	792.21
313.1 K, 6000 kPa, x1 = 0.0074	793.1
313.1 K, 7000 kPa, x1 = 0.0074	793.98
313.1 K, 8000 kPa, x1 = 0.0074	794.88
313.1 K, 9000 kPa, x1 = 0.0074	795.77
313.1 K, 10000 kPa, x1 = 0.0074	796.66
313.1 K, 11000 kPa, x1 = 0.0074	797.53
313.1 K, 12000 kPa, x1 = 0.0074	798.41
313.1 K, 13000 kPa, x1 = 0.0074	799.28
313.1 K, 14000 kPa, x1 = 0.0074	800.14
313.1 K, 15000 kPa, x1 = 0.0074	800.98
